Reference: ChEMBL document CHEMBL1150286, “Discovery and optimization of triazolopyridazines as potent and selective inhibitors of the c-Met kinase” (J Med Chem, 2008)
Each block holds one compound with its values, some of them ahead of it.

Tests used:
[1] = Volume of distribution in steady state in Sprague-Dawley rat at 0.25 mg/kg, iv; format: ADME, organism-based; design: dose 0.25 mg/kg, route intravenous; conditions: in vivo, read-out: Vdss
[2] = Half life in Sprague-Dawley rat at 0.25 mg/kg, iv; format: ADME, organism-based; design: dose 0.25 mg/kg, route intravenous; conditions: in vivo
[3] = Clearance in Sprague-Dawley rat at 0.25 mg/kg, iv; format: ADME, organism-based; design: dose 0.25 mg/kg, route intravenous; conditions: in vivo
[4] = Clearance in rat liver microsomes; format: ADME, Microsome
[5] = Clearance in mouse liver microsomes; format: ADME, Microsome
[6] = AUC (0 to infinity) in Sprague-Dawley rat at 2 mg/kg, po; format: ADME, organism-based; design: time infinity, dose 2 mg/kg, route oral; conditions: plasma
[7] = Bioavailability in Sprague-Dawley rat at 2 mg/kg, po; format: ADME, organism-based; conditions: in vivo
[8] = Clearance in Sprague-Dawley rat at 0.5 mg/kg, iv; format: ADME, organism-based; design: dose 0.5 mg/kg, route intravenous; conditions: in vivo
[9] = biological target: T1, Hepatocyte growth factor receptor (Homo sapiens, UniProt P08581)
Description: Inhibition of HGF-mediated c-Met phosphorylation in serum-starved human PC2 cells

[10] = Volume of distribution in steady state in Sprague-Dawley rat at 0.5 mg/kg, iv; format: ADME, organism-based; design: dose 0.5 mg/kg, route intravenous; conditions: in vivo, read-out: Vdss
[11] = Half life in Sprague-Dawley rat at 0.5 mg/kg, iv; format: ADME, organism-based; design: dose 0.5 mg/kg, route intravenous; conditions: in vivo
[12] = biological target: Tyrosine-protein kinase BTK (Homo sapiens) (UniProt Q06187); assay: Inhibition of Btk
[13] = biological target: Mast/stem cell growth factor receptor Kit (Homo sapiens) (UniProt P10721); assay: Inhibition of cKit
[14] = Drug level in orally dosed mouse plasma after 6 hrs; format: ADME, organism-based; conditions: po
[15] = biological target: Insulin-like growth factor 1 receptor (Homo sapiens) (UniProt P08069); assay: Inhibition of IGF1R
[16] = biological target: Mitogen-activated protein kinase 9 (Homo sapiens) (UniProt P45984); assay: Inhibition of JNK2
[17] = biological target: Tyrosine-protein kinase JAK2 (Homo sapiens) (UniProt O60674); assay: Inhibition of Jak2
Mus musculus = assay: Inhibition of HGF-mediated c-Met phosphorylation in orally dosed mouse liver; format: functional; conditions: po
[18] = biological target: Angiopoietin-1 receptor (Homo sapiens) (UniProt Q02763); assay: Inhibition of Tie2
[19] = biological target: Cyclin-dependent kinase 5 (Homo sapiens) (UniProt Q00535); assay: Inhibition of CDK5
[20] = biological target: Ribosomal protein S6 kinase alpha-5 (Homo sapiens) (UniProt O75582); assay: Inhibition of Msk1
[21] = Inhibition of p38
[22] = biological target: RAC-alpha serine/threonine-protein kinase (Homo sapiens) (UniProt P31749); assay: Inhibition of PKBalpha
[23] = biological target: Vascular endothelial growth factor receptor 2 (Homo sapiens) (UniProt P35968); assay: Inhibition of KDR
[24] = biological target: Proto-oncogene tyrosine-protein kinase Src (Homo sapiens) (UniProt P12931); assay: Inhibition of Src
[25] = biological target: Tyrosine-protein kinase Lck (Homo sapiens) (UniProt P06239); assay: Inhibition of Lck
[26] = biological target: Mitogen-activated protein kinase 3 (Homo sapiens) (UniProt P27361); assay: Inhibition of Erk1
[27] = biological target: T1, Hepatocyte growth factor receptor; assay: Inhibition of c-Met by HTRF assay
[28] = Inhibition of PKAalpha
[29] = biological target: Aurora kinase A (Homo sapiens) (UniProt O14965); assay: Inhibition of Aur2
[30] = biological target: Tyrosine-protein kinase ABL1 (Homo sapiens) (UniProt P00519); assay: Inhibition of Abl

Vd [1]: 0.35 L/kg
half-life [2]: 2.58 h
clearance [3]: 4 mL/min/kg
microsomal CLint [4]: 420 µL/min/mg
microsomal CLint [5]: 173 µL/min/mg
AUC(0-inf) [6]: 5100 ng·h/mL
bioavailability [7]: 59%
Compound: COc1ccc2c(OCc3nnc4ccc(-c5cc(C)ns5)nn34)ccnc2c1

microsomal CLint [4]: 131 µL/min/mg
clearance [8]: 6.17 mL/min/kg
IC50 [9]: 46 nM
microsomal CLint [5]: 122 µL/min/mg
Vd [10]: 0.38 L/kg
AUC(0-inf) [6]: 2520 ng·h/mL
half-life [11]: 1 h
bioavailability [7]: 43%
Compound: COc1ccc2c(OCc3nnc4ccc(-c5ccccc5)nn34)ccnc2c1 [AMG-208]

Activity [12]: > 10 µM
Activity [13]: > 10 µM
concentration at 6 h [14]: 6.7 µM
Vd [1]: 0.152 L/kg
Activity [15]: > 10 µM
Activity [16]: > 10 µM
half-life [2]: 3.5 h
Activity [17]: > 10 µM
Activity [18]: > 10 µM
Activity [19]: > 10 µM
clearance [3]: 0.967 mL/min/kg
microsomal CLint [4]: 190 µL/min/mg
Activity [20]: > 10 µM
IC50 [9]: 7 nM
Activity [21]: > 10 µM
microsomal CLint [5]: 156 µL/min/mg
AUC(0-inf) [6]: 7840 ng·h/mL
bioavailability [7]: 22%
Activity [22]: > 10 µM
Activity [23]: > 10 µM
Activity [24]: > 10 µM
Activity [25]: > 10 µM
Activity [26]: > 10 µM
IC50 [27]: 4 nM
Activity [28]: > 10 µM
Activity [29]: > 10 µM
Activity [30]: > 10 µM
Compound: COc1ccc2c(OCc3nnc4ccc(-c5cc(F)c(F)c(F)c5)nn34)ccnc2c1
ED90 (Mus musculus): 30 mg/kg
